Consider 18 molecules from paper PMC4114533, “Synthesis, Anti-tubulin and Antiproliferative SAR of Steroidomimetic Dihydroisoquinolinones” (Chemmedchem, 2014).

Data set [1] has as its system DU-145 human prostate cancer cells. Nature of the data set: Antiproliferative assay (WST-1, 96 h), DU-145. It is filed as cell-based. Conditions: for GI50: Homo sapiens, DU-145 cells, 96 h, WST-1, mean of three determinations. As to the method: (§1) Cell lines: DU-145 (brain metastasis carcinoma of the prostate) and MDA MB-231 (metastatic pleural effusion of breast adenocarcinoma) established human cell lines were obtained from ATCC Global Bioresource Center. Cells were maintained in a 5 % CO2 humidified atmosphere at 37 °C in RPMI-1640 medium, supplemented with 10 % fetal bovine serum, penicillin, (100 U mL^−1), and streptomycin (0.1 mg mL^−1). The effect of drugs on tubule formation was assessed using an angiogenesis kit (TCS-Cellworks).
(§2) Antiproliferative assays: DU-145 and MDA MB-231 cells were seeded into 96-well microtitre plates (5000 cells per well) and treated with compound (10^−9–10^−4 M) or with vehicle control. At 96 h post-treatment, live cell counts were determined by WST-1 cell proliferation assay (Roche, Penzberg, Germany), as per the manufacturer’s instructions. Viability results were expressed as a percentage of mean control values resulting in the calculation of the 50 % growth inhibition (GI50). All experiments were performed in triplicate.

The test system of data set [2] is MDA MB-231 human breast cancer cells. Nature of the data set: Antiproliferative assay (WST-1, 96 h), MDA MB-231. In kind it is cell-based. Conditions: MDA MB-231 cells, WST-1, mean of three determinations. As to the method: as §1, §2
On the technique in general: Tetrazolium assays rely on reduction of a dye to a coloured formazan, in cell work by metabolically active cells.

Data set [3] concerns the target T1, Bovine brain tubulin (Bos taurus, UniProt P81947+Q6B856).
T1 construct: Bovine brain tubulin, prepared as described previously,[16] was used in studies presented here; from tissue; host or cells: bovine brain
Details: method as in PMID 20225862. The settings on record: data taken from the literature ref 3; cited from earlier work.

The test system of data set [4] is Bovine brain tubulin. Details: method as in PMID 20225862. Conditions: data taken from the literature ref 3; read-out: TP IC50 (tubulin polymerisation); cited from earlier work.
The target of data set [5] is T1, Bovine brain tubulin. The data set can be described thus: Inhibition of [3H]colchicine binding to tubulin. The settings on record: mean ±SD. As to the method: (§3) Tubulin assays: Bovine brain tubulin, prepared as described previously,[16] was used in studies presented here. Assembly IC50 values were determined as described in detail elsewhere.[17] Briefly, 1.0 mg mL^−1 (10 μM) tubulin was pre-incubated without GTP with varying compound concentrations for 15 min at 30 °C. Reaction mixtures were placed on ice, and GTP (final concentration, 0.4 mM) was added. The reaction mixtures were transferred to cuvettes, held at 0 °C in a recording spectrophotometer. Baselines were established at 0 °C, and increase in turbidity was followed for 20 min following a rapid (<30 s) jump to 30 °C. Compound concentrations required to decrease the turbidity increase by 50 % were determined. The method for measuring inhibition of the binding of [^3H]colchicine to tubulin was described in detail previously.[18] Reaction mixtures contained 0.1 mg mL^−1 (1.0 μM) tubulin, 5.0 μM [^3H]colchicine, and potential inhibitor at 5.0 μM. […] A minimum of two experiments were performed with each compound.

The test system of data set [6] is Bovine brain tubulin. Nature of the data set: Tubulin polymerisation (assembly) assay. It is filed as biochemical. The settings on record: 10 μM tubulin, mean ±SD of at least two determinations; read-out: TP IC50 (tubulin polymerisation). How it is done: as §3

Like-named read-outs stand apart in the source and are kept apart here.

T1 sequence (Q6B856 whole entry): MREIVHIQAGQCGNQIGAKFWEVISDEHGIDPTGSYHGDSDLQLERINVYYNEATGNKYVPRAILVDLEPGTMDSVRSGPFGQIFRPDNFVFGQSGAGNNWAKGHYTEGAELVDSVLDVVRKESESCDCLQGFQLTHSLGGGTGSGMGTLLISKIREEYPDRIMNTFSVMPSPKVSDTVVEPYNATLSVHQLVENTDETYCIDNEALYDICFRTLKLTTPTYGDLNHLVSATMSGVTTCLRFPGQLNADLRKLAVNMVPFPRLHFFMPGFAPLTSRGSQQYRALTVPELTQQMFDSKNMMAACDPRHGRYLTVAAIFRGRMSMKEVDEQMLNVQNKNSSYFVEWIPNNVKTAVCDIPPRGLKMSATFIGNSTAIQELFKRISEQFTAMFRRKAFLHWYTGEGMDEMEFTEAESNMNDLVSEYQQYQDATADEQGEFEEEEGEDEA
T1 sequence (P81947 whole entry): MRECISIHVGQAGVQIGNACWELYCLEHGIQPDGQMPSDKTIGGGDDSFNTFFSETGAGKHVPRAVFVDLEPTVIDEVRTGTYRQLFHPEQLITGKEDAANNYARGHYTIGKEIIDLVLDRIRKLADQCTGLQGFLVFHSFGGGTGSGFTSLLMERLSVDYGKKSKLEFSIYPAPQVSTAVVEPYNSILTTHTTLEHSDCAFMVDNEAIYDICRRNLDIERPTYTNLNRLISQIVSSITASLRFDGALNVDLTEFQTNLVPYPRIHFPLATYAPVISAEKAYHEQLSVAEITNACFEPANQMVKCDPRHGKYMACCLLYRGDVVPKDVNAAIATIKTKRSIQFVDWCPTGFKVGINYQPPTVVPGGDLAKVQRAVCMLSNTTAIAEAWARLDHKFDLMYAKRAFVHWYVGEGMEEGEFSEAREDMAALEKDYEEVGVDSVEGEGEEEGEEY

With `COc1ccc(CN2CCc3cc(O)c(OC)cc3C2=O)cc1` [8 c, 6-Hydroxy-7-methoxy-2-(4-methoxybenzyl)-3,4-dihydroisoquinolin-1(2H)-one], the melting point (in general, the temperature, or range, at which the solid turns liquid) fell in the range of 171 to 172 °C. The GI50 (usually the concentration that inhibits growth by half) in data set [1] is more than 100 µM.

Molecule `COc1cccc(CN2CCc3cc(OS(N)(=O)=O)c(OC)cc3C2=O)c1` [9 b, 7-Methoxy-2-(3-methoxybenzyl)-6-sulfamoyloxy-3,4-dihydroisoquinolin-1(2H)-one] displayed a melting point of 139 to 140 °C. For the same molecule, in data set [1], the GI50 is more than 100 µM.

The molecule `COC(=O)c1ccccc1S(=O)(=O)N1CCc2cc(O)c(OC)cc2C1=O` [11 e, Methyl 2-((6-hydroxy-7-methoxy-1-oxo-3,4-dihydroisoquinolin-2(1H)-yl)sulfonyl)benzoate] showed a melting point of 236 to 239 °C. The GI50 in data set [2] is more than 100 µM. This molecule had a GI50 in data set [1] of more than 100 µM.

In turn, `COc1cc2c(cc1O)CCN(C(=O)c1ccc(OC)c(OC)c1)C2=O` [16 e, 6-Hydroxy-2-(3,4-dimethoxybenzoyl)-7-methoxy-3,4-dihydroisoquinolin-1(2H)-one] had a melting point of 199 to 200 °C. In addition, the GI50 in data set [2] came out at 1.6 µM. This molecule had a GI50 in data set [1] of 2.39 µM.

For the molecule `COc1cccc(CN2CCc3cc(O)c(OC)cc3C2=O)c1` [8 b, 6-Hydroxy-7-methoxy-2-(3-methoxybenzyl)-3,4-dihydroisoquinolin-1(2H)-one], the melting point lay in the range of 181 to 182 °C. For the same molecule, in data set [1], the GI50 was more than 100 µM.

Turning to `CCc1cc2c(cc1OS(N)(=O)=O)CC[C@@H]1[C@@H]2CC[C@]2(C)[C@@H](OS(N)(=O)=O)CC[C@@H]12` [1 c], the “CB [% inhib.] 5 μM inhibitor” value at Bovine brain tubulin [3] is listed as 45±4%. For the same molecule, the IC50 (usually the point on the concentration scale where inhibition reaches its midpoint) in the data set with Bovine brain tubulin [4] is 1.3 ± 0.01 µM.

Turning to `COc1ccc(C(=O)N2CCc3cc(OS(N)(=O)=O)c(OC)cc3C2=O)cc1` [17 d, 2-(4-Methoxybenzoyl)-7-methoxy-6-sulfamoyloxy-3,4-dihydroisoquinolin-1(2H)-one], the melting point fell in the range of 171 to 172 °C. This molecule displayed a GI50 in data set [1] of more than 100 µM. Further, the “antiproliferative activity (in words)” value in data set [1] (in vitro antiproliferative activity, result in words) was “inactive”.

Molecule `COc1cc2c(cc1OS(N)(=O)=O)CCN(S(=O)(=O)c1ccccc1OC)C2=O` [12 a, 7-Methoxy-2-((2-methoxyphenyl)sulfonyl)-6-(sulfamoyloxy)-3,4-dihydroisoquinolin-1(2H)-one] had a melting point of 195 to 197 °C. This molecule showed a GI50 in data set [2] of more than 100 µM. The GI50 in data set [1] is more than 100 µM.

The molecule `COc1cc2c(cc1OS(N)(=O)=O)CCN(S(=O)(=O)c1cccc(Cl)c1)C2=O` [12 d, 2-((3-Chlorophenyl)sulfonyl)-7-methoxy-6-(sulfamoyloxy)-3,4-dihydroisoquinolin-1(2H)-one] yielded a melting point of 170 to 173 °C. This molecule also gave a GI50 in data set [2] of more than 100 µM. This molecule yielded a GI50 in data set [1] of more than 100 µM.

As to `COc1ccc(/C=C\c2cc(OC)c(OC)c(OC)c2)cc1O` [CA-4, combretastatin A-4, reference compound], the inhibition at 1 µM on Bovine brain tubulin [5] (1 μM inhibitor, read-out: CB [% inhib.] 1 μM inhibitor) was determined as 90 ± 0.2%.

In the case of `COc1ccc(S(=O)(=O)N2CCc3cc(O)c(OC)cc3C2=O)cc1` [11 c, 6-Hydroxy-7-methoxy-2-((4-methoxyphenyl)sulfonyl)-3,4-dihydroisoquinolin-1(2H)-one], the melting point was 202 to 204 °C. In addition, the concentration for 50% growth inhibition (GI50) in data set [2] was more than 100 µM. In data set [1], this molecule yielded a GI50 of more than 100 µM.

Regarding `COc1cc2c(cc1OS(N)(=O)=O)CC[C@@H]1[C@@H]2CC[C@]2(C)[C@@H](CC#N)CC[C@@H]12` [1 b], on Bovine brain tubulin [3], the “CB [% inhib.] 5 μM inhibitor” value is given as 78±0.9%. Also, the IC50 in the data set on Bovine brain tubulin [4] was 1.3 ± 0.08 µM.

Turning to `COc1cccc(S(=O)(=O)N2CCc3cc(OS(N)(=O)=O)c(OC)cc3C2=O)c1` [12 b, 7-Methoxy-2-((3-methoxyphenyl)sulfonyl)-6-(sulfamoyloxy)-3,4-dihydroisoquinolin-1(2H)-one], the melting point lay within 164 to 166 °C. The GI50 in data set [2] is more than 100 µM. The GI50 in data set [1] was more than 100 µM.

As for `COc1cc2c(cc1OS(N)(=O)=O)CCN(C(=O)c1cc(OC)c(OC)c(OC)c1)C2=O` [17 g, 7-Methoxy-2-(3,4,5-trimethoxybenzoyl)-6-sulfamoyloxy-3,4-dihydroisoquinolin-1(2H)-one], the IC50 in the data set on Bovine brain tubulin [6] was found to be 1.2 ± 0.03 µM. Besides, at Bovine brain tubulin [5] (5 μM inhibitor, 1.0 μM tubulin, 5.0 μM [3H]colchicine, read-out: CB [% inhib.] 5 μM inhibitor), the inhibition at 5 µM was determined as 85 ± 2%. In addition, the GI50 stood at 0.275 µM in data set [2] and 0.166 µM in data set [1].

`COc1cc2c(cc1OS(N)(=O)=O)CCN(C(=O)c1cccc(C#N)c1)C2=O` [17 c, 2-(3-Cyanobenzoyl)-7-methoxy-6-sulfamoyloxy-3,4-dihydroisoquinolin-1(2H)-one] displayed a melting point of 171 to 172 °C. This molecule came in with a 50% growth inhibitory concentration (GI50) in data set [2] of more than 100 µM. In data set [1], this molecule returned a GI50 of 25 µM.

Regarding `COC(=O)c1ccccc1S(=O)(=O)N1CCc2cc(OS(N)(=O)=O)c(OC)cc2C1=O` [12 e, Methyl 2-((7-methoxy-1-oxo-6-(sulfamoyloxy)-3,4-dihydroisoquinolin-2(1H)-yl)sulfonyl)benzoate], the melting point fell in the range of 181 to 186 °C. For the same molecule, the GI50 in data set [2] is 13 µM. The molecule also yielded a GI50 in data set [1] of more than 100 µM.

Consider `COc1cc2c(cc1OS(N)(=O)=O)CC[C@@H]1[C@@H]2CC[C@]2(C)[C@@H](OS(N)(=O)=O)CC[C@@H]12` [1 a], for which the “CB [% inhib.] 5 μM inhibitor” value on Bovine brain tubulin [3] is given as 28±3%. The IC50 with Bovine brain tubulin [4] was 2.2 ± 0.3 µM.

For `COc1cc2c(cc1O)CCN(S(=O)(=O)c1cccc(Cl)c1)C2=O` [11 d, 6-Hydroxy-7-methoxy-2-((3-chlorophenyl)sulfonyl)-3,4-dihydroisoquinolin-1(2H)-one], the melting point fell in the range of 178 to 181 °C. In data set [2], the GI50 was more than 100 µM. The concentration for 50% growth inhibition (GI50) in data set [1] was more than 100 µM.
